Consider eleven compounds from PubChem BioAssay (NCI).

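A five-concentration, 48-hour dose response in 96-well plates underlies each endpoint, interpolated linearly between surrounding concentrations. TGI marks complete inhibition of growth.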 Some results are limits rather than exact numbers.

Test systems include ACHN renal; BT-549 breast; CCRF-CEM leukemia; HCT-15 colon; HL-60(TB) leukemia; HT29 colon; MALME-3M melanoma; MDA-MB-435; MOLT-4 leukemia; NCI-H226 lung; SK-OV-3 ovarian; SNB-19 CNS; UO-31 renal; DLD-1 colon.
Experiment in all cases: inhibition of tumour cell growth, NCI panel, 48 h

With `CO[C@H]1O[C@@H]2CO[C@@H](c3ccccc3)O[C@H]2C[C@]12CCC/C=C\CO2`, the TGI in the experiment with ACHN renal is 35 µM; in the experiment on BT-549 breast, 23.9 µM; in the experiment on CCRF-CEM leukemia it was 36.5 µM; in the experiment with HCT-15 colon, 27.5 µM; with HL-60(TB) leukemia it was 54.7 µM; with HT29 colon, 40.5 µM. Also, the TGI in the experiment with MALME-3M melanoma was 26.4 µM; with MDA-MB-435, 26.5 µM; in the experiment with MOLT-4 leukemia, 32 µM; in the experiment with NCI-H226 lung, 50.9 µM; in the experiment on SK-OV-3 ovarian it was > 75 µM; in the experiment on SNB-19 CNS it was > 75 µM. The TGI in the experiment on UO-31 renal amounted to 25.2 µM.

Consider `CC/C(Cl)=N\OC(=O)Nc1ccc(C#N)cc1`, for which the TGI came to 27.4 µM in the experiment with ACHN renal; 28.3 µM in the experiment on BT-549 breast; 4.1 µM with CCRF-CEM leukemia; 21.7 µM with HCT-15 colon; 6.2 µM in the experiment on HL-60(TB) leukemia; 36.9 µM with HT29 colon. Besides, the TGI in the experiment on MALME-3M melanoma is 8.25 µM; with MDA-MB-435, 29.4 µM; with MOLT-4 leukemia, 11 µM; with NCI-H226 lung, 30.9 µM; with SK-OV-3 ovarian, 22.3 µM; with SNB-19 CNS, > 100 µM. Besides, the TGI with UO-31 renal was found to be 31 µM.

For the compound `Clc1nc2c(-c3cccs3)ncnc2n1Cc1ccccc1`, the TGI with ACHN renal was 4.36 µM; with BT-549 breast, > 81.8 µM; in the experiment on CCRF-CEM leukemia, > 100 µM; in the experiment with HCT-15 colon, > 100 µM; with HL-60(TB) leukemia, > 70.3 µM; in the experiment on HT29 colon, > 100 µM. Besides, the TGI was > 100 µM in the experiment with MALME-3M melanoma; > 100 µM in the experiment on MDA-MB-435; > 100 µM in the experiment on MOLT-4 leukemia; > 100 µM in the experiment with NCI-H226 lung; > 95.4 µM with SK-OV-3 ovarian; > 78.3 µM with SNB-19 CNS. Further, the TGI with UO-31 renal was determined as 1.09 µM.

As to `COc1ccc2c(c1)c1cc(OC)ccc1n2CCCCOc1ccc(-c2c3ccccc3c(-c3ccc(OCCCCn4c5ccc(OC)cc5c5cc(OC)ccc54)cc3)c3ccccc23)cc1`, the TGI with ACHN renal, with CCRF-CEM leukemia, with DLD-1 colon, with HCT-15 colon, with MALME-3M melanoma and in the experiment on MOLT-4 leukemia was > 100 µM throughout. The TGI in the experiment with NCI-H226 lung, in the experiment with SK-OV-3 ovarian, in the experiment with SNB-19 CNS and in the experiment with UO-31 renal was > 100 µM each time.

Consider `O=C(C1OC1c1ccc([N+](=O)[O-])cc1)C12CC3CC(CC(C3)C1)C2` (stereo not given), for which the TGI in the experiment with ACHN renal came to 34 µM; in the experiment on BT-549 breast it was 40.2 µM; in the experiment on CCRF-CEM leukemia, 7.66 µM; in the experiment on HCT-15 colon, 31.5 µM; with HL-60(TB) leukemia it was 16.1 µM; with HT29 colon, 47.7 µM. The TGI was found to be 32.4 µM in the experiment on MALME-3M melanoma; 28.4 µM in the experiment with MDA-MB-435; 49.3 µM with MOLT-4 leukemia; 39.4 µM with NCI-H226 lung; 49.6 µM with SK-OV-3 ovarian; 32 µM in the experiment with SNB-19 CNS. This compound returned a TGI in the experiment on UO-31 renal of 32.4 µM.

Take `Cc1cccc2c1C(=O)C(C1OC(=O)c3ccccc31)C2` (stereo not given): the TGI with ACHN renal, in the experiment on BT-549 breast, in the experiment with CCRF-CEM leukemia, in the experiment on HCT-15 colon, in the experiment on HL-60(TB) leukemia and in the experiment on HT29 colon was > 100 µM each time. The TGI in the experiment on MALME-3M melanoma, with MDA-MB-435, in the experiment with MOLT-4 leukemia, with NCI-H226 lung, in the experiment on SK-OV-3 ovarian and in the experiment with SNB-19 CNS was > 100 µM in each case. For the same compound, the TGI in the experiment with UO-31 renal was > 100 µM.

Take `O=C(O)c1ccccc1/C=N\NC1=NCCN1`: the TGI with ACHN renal, with BT-549 breast, with CCRF-CEM leukemia, with HCT-15 colon, in the experiment with HL-60(TB) leukemia and in the experiment with HT29 colon was > 100 µM each time. Besides, the TGI with MALME-3M melanoma, in the experiment on MDA-MB-435, in the experiment with MOLT-4 leukemia, with NCI-H226 lung, in the experiment on SK-OV-3 ovarian and with SNB-19 CNS was > 100 µM throughout. Also, the TGI in the experiment on UO-31 renal was > 100 µM.

Take `N#Cc1c(NC(=S)NCc2ccccc2)sc2c1CCN(N1CCc3c(sc(NC(=S)NCc4ccccc4)c3C#N)C1)C2`: the TGI in the experiment with ACHN renal, in the experiment with BT-549 breast, in the experiment on CCRF-CEM leukemia, in the experiment with HCT-15 colon, in the experiment on HL-60(TB) leukemia and with HT29 colon was > 100 µM throughout. In addition, the TGI in the experiment on MALME-3M melanoma, in the experiment on MDA-MB-435, with MOLT-4 leukemia, with NCI-H226 lung, with SK-OV-3 ovarian and in the experiment on SNB-19 CNS was > 100 µM in each case. The TGI in the experiment on UO-31 renal was > 100 µM.

For `CN1CCN(c2ccc3[nH]c(C4=C(O)c5nc(CO)n(C)c5C(=O)C4=O)nc3n2)CC1`, the TGI in the experiment on ACHN renal, in the experiment with BT-549 breast, with CCRF-CEM leukemia, in the experiment on HCT-15 colon, in the experiment on HL-60(TB) leukemia and with HT29 colon was > 100 µM in each case. Also, the TGI in the experiment with MALME-3M melanoma, in the experiment on MDA-MB-435, with MOLT-4 leukemia, in the experiment with NCI-H226 lung, in the experiment on SK-OV-3 ovarian and with SNB-19 CNS was > 100 µM throughout. Besides, the TGI in the experiment with UO-31 renal is > 100 µM.

Turning to `CCOC(=O)c1c(SCCO)n(-c2ccccc2)c(=S)n(-c2ccccc2)c1=O`, the TGI in the experiment on ACHN renal, in the experiment on BT-549 breast, in the experiment on CCRF-CEM leukemia, in the experiment with HCT-15 colon, in the experiment on HL-60(TB) leukemia and with HT29 colon was > 100 µM each time. Besides, the TGI with MALME-3M melanoma, in the experiment with MDA-MB-435, with MOLT-4 leukemia, in the experiment with NCI-H226 lung, in the experiment with SK-OV-3 ovarian and in the experiment with SNB-19 CNS was > 100 µM throughout. For the same compound, the TGI with UO-31 renal is > 100 µM.

Consider `Nc1c(C(=O)c2ccccc2)[nH]c(NCc2ccccc2)c1C(=S)Nc1ccccc1`, for which the TGI with ACHN renal, in the experiment on BT-549 breast, in the experiment with CCRF-CEM leukemia, with HCT-15 colon, with HL-60(TB) leukemia and in the experiment on HT29 colon was > 100 µM in each case. In addition, the TGI in the experiment with MALME-3M melanoma, in the experiment with MDA-MB-435, in the experiment with MOLT-4 leukemia, in the experiment on NCI-H226 lung, in the experiment on SK-OV-3 ovarian and with SNB-19 CNS was > 100 µM throughout. In addition, the TGI with UO-31 renal was > 100 µM.
